# From patent publication US20050118565A1, “Systems and methods for assessing neuronal degeneration” (priority 2003, published 2005)
# Key:
# [1] = system: cultured hippocampal samples; experiment: PI uptake method, dose-response of excitotoxins; format: cell-based; settings: for Hill coefficient (PI uptake method): PI uptake dose-response curve; for EC50: PI uptake, read-out: EC50 from the PI uptake method
# Experimental: The mechanisms underlying the reduction in amplitude of synaptic responses produced by incubation with these two excitotoxins were further studied by applying various concentrations of NMDA and AMPA to tissue samples. As in the control experiments, the plateau values of the respective I/O curves were used for the analysis (FIGS. 4A and 4B). […] For comparison, dose-response curves obtained with the PI uptake method were plotted in the same figures (FIGS. 4A and 4B, open circles and dashed lines).
# [2] = system: cultured hippocampal samples; experiment: fEPSP recording on MED probe: neurodegeneration induced by NMDA and AMPA; format: cell-based, Sprague-Dawley rats; settings: for effect of chronic exposure on synaptic responses: chronic exposure of cultured hippocampal samples; for Hill coefficient: electrophysiology dose-response curve; for EC50: electrophysiology, various concentrations of agonist, read-out: EC50 (decrease of synaptic responses, Hill fit of plateau values of I/O curves); for synaptic responses, of the initial amplitude: then one hour of NMDA wash-out
# Experimental: Before use, the MED probes (Panasonic, model MED-P530AP, each electrode: […], interpolar distance: 300 μm) were soaked in 70% ethanol for 15 minutes, dried, and then sterilized with UV radiation for 15 minutes. The probe surfaces were treated overnight at room temperature with 0.1% polyethylenimine and 25 mM borate buffer, pH 8.4. The probe surface was then dried and rinsed 3 times with sterile distilled water. Finally, the probes were filled with culture medium and stored in a CO2 incubator until use (for at least one hour). The culture medium was a 2:1 mixture of Basal Medium Eagle Medium (Sigma, Catalog No. B9638) and Earle Balanced Salts Solution (Sigma, Catalog No. E7510), supplemented with the following compounds (in mM): NaCl (20), NaHCO3 (5), CaCl2 (0.2), MgSO4 (1.7), glucose (48), HEPES (26.7); 5% horse serum (GIBCO, Catalog No. 26050) and 10 ml/L penicillin-streptomycin (GIBCO, Catalog No. 10378). The pH of culture medium was then adjusted to 7.2.
# All procedures for culture preparation were carried out under a sterilized bench. Eleven day-old Sprague-Dawley rats were first sterilized with 70% ethanol, sacrificed by decapitation following anesthesia and the whole brain removed. The brains were immediately soaked in sterile ice-cold MEM (pH 7.2; GIBCO, Catalog No. 61100), supplemented with HEPES (25 mM), Tris-base (10 mM), glucose (10 mM) and MgCl2 (3 mM). Appropriate portions of the brain were then trimmed by hand and the remaining brain block placed on an ice-cold stage of a vibrating tissue slicer (Leica, model VT1000S). The thickness of the slices was set at 200 μm. The slices were gently taken off from the blade with a pipette. Each slice was trimmed, placed on the center of the MED probe, which was previously coated as mentioned above, and positioned to cover the 8×8 microelectrode array.
# After positioning the section on the MED probe, the cutting solution was removed and culture medium added to the slice up to an interface level (approximately […]). Sterile distilled water was added around the probe to increase humidity and prevent over-drying of the culture medium in the MED probe. The slices on the MED probes were then stored in a CO2 incubator at 34° C. The medium was exchanged with half volume every day.
# (§1) For baseline electrophysiological recordings in hippocampal samples, the MED probes containing the samples were removed from the incubator and placed in a smaller CO2 incubator at 34° C. and connected to the stimulation/recording component of the probe. The culture medium was replaced with sterile artificial cerebrospinal fluid (ACSF) of the following composition (in mM): NaCl (124), NaHCO3 (26), glucose (10), KCl (3), NaH2PO4 (1.25), CaCl2 (2), MgSO4 (1), and HEPES (10).
# (§2) Evoked field potentials at all 64 sites were then recorded simultaneously with the multi-channel recording system (Panasonic, MED64 system) at a 20 kHz sampling rate. One of the planar microelectrodes of the 64 available was used for cathode stimulation. Bipolar constant current pulses (10 to 45 μA, 0.1 msec) were then produced. To collect typical responses in field CA1, one of the electrodes in the Schaffer collateral fibers was selected as a stimulating electrode while another one in stratum radiatum was selected as a recording electrode. Synaptic responses were recorded at eight-step stimulation intensities (10 to 45 μA, 5 μA steps). After each recording session, ACSF was replaced with culture medium and the samples in the probes were returned to the CO2 incubator.
# fEPSPs were recorded at 20 s intervals using a paired-pulse stimulation paradigm with an inter-pulse interval of 50 msec. […] Slope and decay time of the responses were remarkably similar to those recorded in acutely prepared slices using the same system (FIG. 2C). […]
# [3] = system: neuronal samples chronically exposed to NMDA; experiment: Neuroprotectant assay: fEPSP amplitude on MED probe with 10 μM NMDA as excitotoxin; format: cell-based, Sprague-Dawley rats
# Experimental: An assay for identifying neuroprotectants first involves testing the stability of the recordings by comparing FEPSP amplitudes measured at the beginning of the experiments with those measured later, e.g., after at least 3, 24, 48, and 72 hours at the same stimulation intensity (FIG. 1C). For data analysis, the amplitude of the maximal (plateau) value of the I/O curve is used to determine stability of the recordings. Typically, it corresponds to responses obtained by stimulation intensities of […] (FIG. 2B).
# NMDA was selected as the excitotoxin. Based on the dose-response analysis described above (FIG. 4A), 10 μM NMDA was chosen as the concentration of agonist for use in this neuroprotectant assay. […] The neuronal samples and MED probes were prepared as described above.
# After performing control measurements, neuronal samples were incubated in culture medium containing 10 μM NMDA and 1 μM MK-801 for various periods of time. […] The relative amplitude of synaptic responses measured at stimulation intensities corresponding to the plateau of I/O curves after 3 days of incubation was 91±6% of control (n=3).
# After performing control measurements, neuronal samples were incubated in culture medium containing 10 μM NMDA and 30 μM memantine for various periods of time. […] However the degree of protection was much smaller than that provided by MK-801, as only 78±5% (n=3) of the initial amplitude was preserved under these conditions. The concentration dependency of memantine protection was studied using 10 μM NMDA and various concentrations of memantine.
# [4] = system: neuronal samples; experiment: fEPSP recording on MED probe: incubation with NMDA antagonist alone; format: cell-based, Sprague-Dawley rats; settings: for amplitudes of responses, of control: n=3
# Experimental: as §1, §2
# However, after 1, 2, and 3 days of incubation, the amplitudes of responses were decreased to 83±6%, 79±11%, and 76±10% (n=3) of control, respectively.
smiles,measurement,setting,value
"Cc1onc(O)c1CC(N)C(=O)O (stereo not drawn) [AMPA, amino-3-hydroxy-5-methyl-4-isoxazolepropionic acid]",Hill coefficient (PI uptake method),[1],2.0±0.1
same,EC50,[1],3.87 ± 0.1 µM
same,recovery of synaptic responses after agonist removal,"[2]; 1 μM AMPA 3 days, then 24 hours of AMPA removal",no recovery was observed
same,time course of the decrease in synaptic response,"[2]; 1 μM AMPA, three hours and subsequent time points","continued to decrease at subsequent time points, stabilizing after 1 day"
same,"amplitude of synaptic responses, of control values","[2]; 40 min. incubation with 3 μM AMPA, n=3",12±5%
same,synaptic response amplitudes,"[2]; 3 days of incubation with 1 μM AMPA, n=3",46±4%
same,effect of chronic exposure on synaptic responses,[2],dose-dependent decreases in synaptic responses
same,Hill coefficient,[2],2.6±0.8
same,EC50,[2],0.81 ± 0.1 µM
C[C@]12N[C@H](Cc3ccccc31)c1ccccc12 [MK-801],protection of synaptic transmission against NMDA-mediated neurotoxicity,"[3]; 10 μM NMDA and 1 μM MK-801, 3 hours up to 3 days",almost completely protected
same,"relative amplitude of synaptic responses at plateau of I/O curves, of control","[3]; 10 μM NMDA and 1 μM MK-801, 3 days of incubation, n=3",91±6%
same,synaptic responses,"[4]; 1 μM MK-801 alone, 3 hours of incubation",not affected
same,"amplitudes of responses, of control","[4]; 1 μM MK-801 alone, 1 day of incubation",83±6%
same,"amplitudes of responses, of control","[4]; 1 μM MK-801 alone, 2 days of incubation",79±11%
same,"amplitudes of responses, of control","[4]; 1 μM MK-801 alone, 3 days of incubation",76±10%
"CN[C@H](CC(=O)O)C(=O)O [NMDA, N-methyl-D-aspartate]",Hill coefficient (PI uptake method),[1],3.7±1.0
same,EC50,[1],21.6 ± 3.4 µM
same,"synaptic responses, of the initial amplitude",[2]; 10 μM NMDA for 40 min.,109±4%
same,"synaptic responses, of the initial amplitude",[2]; 10 μM NMDA for 3 hours,66±5%
same,"synaptic responses, of the initial amplitude",[2]; 10 μM NMDA for 1 day,52±2%
same,"synaptic responses, of the initial amplitude",[2]; 10 μM NMDA for 3 days,18±3%
same,"maximal amplitude of synaptic responses, of control values","[2]; 10 μM NMDA, three hours of incubation, n=3",18±4%
same,effect of chronic exposure on synaptic responses,[2],dose-dependent decreases in synaptic responses
same,Hill coefficient,[2],1.7±0.2
same,EC50,[2],5.2 ± 0.5 µM
same,"amplitude of synaptic responses, of control values","[2]; end of incubation with 10 μM NMDA for 40 min., n=3",48±12%
same,"amplitude of synaptic responses, of control values","[2]; end of incubation with 10 μM NMDA for 3 hours, n=3",22±7%
same,"amplitude of synaptic responses, of control values","[2]; end of incubation with 10 μM NMDA for 1 day, n=3",13±3%
same,"amplitude of synaptic responses, of control values","[2]; end of incubation with 10 μM NMDA for 3 days, n=3",11±3%
CC12CC3CC(C)(C1)CC(N)(C3)C2 [memantine],initial amplitude preserved,"[3]; 10 μM NMDA and 30 μM memantine, up to 3 days of incubation, n=3",78±5%
same,Hill coefficient of protection,[3]; 10 μM NMDA and various concentrations of memantine,1.1±3
same,IC50,"[3]; Rattus norvegicus, 10 μM NMDA and various concentrations of memantine, read-out: IC50 of protection (Hill equation)",6.9 ± 1.6 µM
same,synaptic transmission,"[4]; memantine alone, even at 30 μM, long-term incubation",did not result in a significant decrease
